# Source: ChEMBL document CHEMBL1201862, “PubChem BioAssay data set” (2004)
#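 Values below derive from 48-hour exposures of cells grown in 96-well plates, with endpoints linearly interpolated between the two concentrations bracketing the appropriate inhibition level. GI50: concentration for 50% inhibition of growth.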 The source made the active and inactive calls. Cut-off read from the data, not from the text of the source: active = GI50 up to about 1.1 µM and inactive = higher.
# How the values were obtained:
# Experiment in all cases: NCI anticancer screen, dose series, 48 h
# 786-0 = system: 786-0
# A498 = system: A498
# A549 = system: A549
# ACHN = system: ACHN
# CAKI-1 = system: CAKI-1
# CCRF-CEM = system: CCRF-CEM
# COLO 205 = system: COLO 205
# DLD-1 = system: DLD-1
# DMS-114 = system: DMS-114
# DMS-273 = system: DMS-273
# EKVX = system: EKVX
# HCT-116 = system: HCT-116
# HCT-15 = system: HCT-15
# HOP-18 = system: HOP-18
# HOP-62 = system: HOP-62
# HOP-92 = system: HOP-92
# HT-29 = system: HT-29
# IGROV-1 = system: IGROV-1
# K562 = system: K562
# KM-20L2 = system: KM-20L2
# KM12 = system: KM12
# LOX IMVI = system: LOX IMVI
# M19-MEL = system: M19-MEL
# Malme-3M = system: Malme-3M
# NCI-H23 = system: NCI-H23
# NCI-H460 = system: NCI-H460
# OVCAR-3 = system: OVCAR-3
# OVCAR-4 = system: OVCAR-4
# OVCAR-5 = system: OVCAR-5
# OVCAR-8 = system: OVCAR-8
# RPMI-8226 = system: RPMI-8226
# RXF 393 = system: RXF 393
# SF-268 = system: SF-268
# SF-295 = system: SF-295
# SF-539 = system: SF-539
# SK-MEL-28 = system: SK-MEL-28
# SK-MEL-2 = system: SK-MEL-2
# SK-MEL-5 = system: SK-MEL-5
# SN12C = system: SN12C
# SNB-19 = system: SNB-19
# SNB-75 = system: SNB-75
# SNB-78 = system: SNB-78
# SR = system: SR
# SW-620 = system: SW-620
# TK-10 = system: TK-10
# U-251 = system: U-251
# UACC-257 = system: UACC-257
# UACC-62 = system: UACC-62
# XF498 = system: XF498
# HCC 2998 = system: HCC 2998
# HL-60 = system: HL-60
# LXFL 529 = system: LXFL 529
# M14 = system: M14
# MOLT-4 = system: MOLT-4
# NCI-H226 = system: NCI-H226
# NCI-H522 = system: NCI-H522
# SK-OV-3 = system: SK-OV-3
# UO-31 = system: UO-31
structure (smiles),measurement,setting,value
C[C@H]1COC2(c3ccccc3)CCC(=O)N12 (stereo partly drawn),GI50,786-0,> 100 µM (inactive)
same,GI50,A498,> 100 µM (inactive)
same,GI50,A549,> 100 µM (inactive)
same,GI50,ACHN,> 100 µM (inactive)
same,GI50,CAKI-1,> 100 µM (inactive)
same,GI50,CCRF-CEM,> 100 µM (inactive)
same,GI50,COLO 205,> 100 µM (inactive)
same,GI50,DLD-1,> 100 µM (inactive)
same,GI50,DMS-114,> 100 µM (inactive)
same,GI50,DMS-273,> 100 µM (inactive)
same,GI50,EKVX,> 100 µM (inactive)
same,GI50,HCT-116,> 100 µM (inactive)
same,GI50,HCT-15,> 100 µM
same,GI50,HOP-18,> 100 µM (inactive)
same,GI50,HOP-62,> 100 µM (inactive)
same,GI50,HOP-92,> 100 µM (inactive)
same,GI50,HT-29,> 100 µM (inactive)
same,GI50,IGROV-1,> 100 µM (inactive)
same,GI50,K562,> 100 µM (inactive)
same,GI50,KM-20L2,> 100 µM (inactive)
same,GI50,KM12,> 100 µM (inactive)
same,GI50,LOX IMVI,> 100 µM (inactive)
same,GI50,M19-MEL,> 100 µM (inactive)
same,GI50,Malme-3M,> 100 µM (inactive)
same,GI50,NCI-H23,> 100 µM (inactive)
same,GI50,NCI-H460,> 100 µM (inactive)
same,GI50,OVCAR-3,> 100 µM (inactive)
same,GI50,OVCAR-4,> 100 µM (inactive)
same,GI50,OVCAR-5,> 100 µM (inactive)
same,GI50,OVCAR-8,> 100 µM (inactive)
same,GI50,RPMI-8226,> 100 µM (inactive)
same,GI50,RXF 393,> 100 µM (inactive)
same,GI50,SF-268,> 100 µM (inactive)
same,GI50,SF-295,> 100 µM (inactive)
same,GI50,SF-539,> 100 µM (inactive)
same,GI50,SK-MEL-28,> 100 µM (inactive)
same,GI50,SK-MEL-2,> 100 µM (inactive)
same,GI50,SK-MEL-5,> 100 µM (inactive)
same,GI50,SN12C,> 100 µM (inactive)
same,GI50,SNB-19,> 100 µM (inactive)
same,GI50,SNB-75,> 100 µM (inactive)
same,GI50,SNB-78,> 100 µM (inactive)
same,GI50,SR,> 100 µM (inactive)
same,GI50,SW-620,> 100 µM (inactive)
same,GI50,TK-10,> 100 µM (inactive)
same,GI50,U-251,> 100 µM (inactive)
same,GI50,UACC-257,> 100 µM (inactive)
same,GI50,UACC-62,> 100 µM (inactive)
same,GI50,XF498,> 100 µM (inactive)
O=C(O)Cc1cc(=O)oc2cc(O)c(Cl)cc12,GI50,786-0,> 100 µM (inactive)
same,GI50,A498,> 100 µM (inactive)
same,GI50,A549,> 100 µM (inactive)
same,GI50,ACHN,> 100 µM (inactive)
same,GI50,CAKI-1,> 100 µM (inactive)
same,GI50,CCRF-CEM,> 100 µM (inactive)
same,GI50,COLO 205,> 100 µM (inactive)
same,GI50,DLD-1,> 100 µM (inactive)
same,GI50,DMS-114,> 100 µM (inactive)
same,GI50,DMS-273,> 100 µM (inactive)
same,GI50,EKVX,> 100 µM (inactive)
same,GI50,HCC 2998,> 100 µM (inactive)
same,GI50,HCT-116,> 100 µM (inactive)
same,GI50,HCT-15,> 100 µM
same,GI50,HL-60,> 100 µM (inactive)
same,GI50,HOP-18,> 100 µM (inactive)
same,GI50,HOP-62,> 100 µM (inactive)
same,GI50,HOP-92,> 100 µM (inactive)
same,GI50,HT-29,> 100 µM (inactive)
same,GI50,IGROV-1,> 100 µM (inactive)
same,GI50,K562,> 100 µM (inactive)
same,GI50,KM-20L2,> 100 µM (inactive)
same,GI50,KM12,> 100 µM (inactive)
same,GI50,LOX IMVI,> 100 µM (inactive)
same,GI50,LXFL 529,> 100 µM (inactive)
same,GI50,M14,> 100 µM (inactive)
same,GI50,M19-MEL,> 100 µM (inactive)
same,GI50,MOLT-4,> 100 µM (inactive)
same,GI50,Malme-3M,> 100 µM (inactive)
same,GI50,NCI-H226,> 100 µM (inactive)
same,GI50,NCI-H23,> 100 µM (inactive)
same,GI50,NCI-H460,> 100 µM (inactive)
same,GI50,NCI-H522,> 100 µM (inactive)
same,GI50,OVCAR-3,> 100 µM (inactive)
same,GI50,OVCAR-4,> 100 µM (inactive)
same,GI50,OVCAR-5,> 100 µM (inactive)
same,GI50,OVCAR-8,> 100 µM (inactive)
same,GI50,RPMI-8226,> 100 µM (inactive)
same,GI50,SF-268,> 100 µM (inactive)
same,GI50,SF-295,> 100 µM (inactive)
same,GI50,SF-539,> 100 µM (inactive)
same,GI50,SK-MEL-28,> 100 µM (inactive)
same,GI50,SK-MEL-2,> 100 µM (inactive)
same,GI50,SK-MEL-5,> 100 µM (inactive)
same,GI50,SK-OV-3,> 100 µM (inactive)
same,GI50,SN12C,> 100 µM (inactive)
same,GI50,SNB-19,> 100 µM (inactive)
same,GI50,SNB-75,28.6 µM (inactive)
same,GI50,SW-620,> 100 µM (inactive)
same,GI50,TK-10,> 100 µM (inactive)
same,GI50,U-251,> 100 µM (inactive)
same,GI50,UACC-62,> 100 µM (inactive)
same,GI50,XF498,> 100 µM (inactive)
O=C(/C=C(\O)C(=O)O)/C=C(\O)c1ccccc1Cl,GI50,786-0,> 100 µM (inactive)
same,GI50,A498,> 100 µM (inactive)
same,GI50,A549,> 100 µM (inactive)
same,GI50,ACHN,> 100 µM (inactive)
same,GI50,CAKI-1,> 100 µM (inactive)
same,GI50,CCRF-CEM,> 100 µM (inactive)
same,GI50,COLO 205,> 100 µM (inactive)
same,GI50,DLD-1,> 100 µM (inactive)
same,GI50,DMS-114,> 100 µM (inactive)
same,GI50,DMS-273,> 100 µM (inactive)
same,GI50,EKVX,> 100 µM (inactive)
same,GI50,HCC 2998,> 100 µM (inactive)
same,GI50,HCT-116,> 100 µM (inactive)
same,GI50,HCT-15,> 100 µM
same,GI50,HL-60,> 100 µM (inactive)
same,GI50,HOP-18,> 100 µM (inactive)
same,GI50,HOP-62,> 100 µM (inactive)
same,GI50,HOP-92,> 100 µM (inactive)
same,GI50,HT-29,> 100 µM (inactive)
same,GI50,IGROV-1,> 100 µM (inactive)
same,GI50,K562,> 100 µM (inactive)
same,GI50,KM-20L2,> 100 µM (inactive)
same,GI50,KM12,> 100 µM (inactive)
same,GI50,LOX IMVI,> 100 µM (inactive)
same,GI50,LXFL 529,> 100 µM (inactive)
same,GI50,M14,> 100 µM (inactive)
same,GI50,MOLT-4,> 100 µM (inactive)
same,GI50,Malme-3M,> 100 µM (inactive)
same,GI50,NCI-H226,> 100 µM (inactive)
same,GI50,NCI-H23,> 100 µM (inactive)
same,GI50,NCI-H460,> 100 µM (inactive)
same,GI50,NCI-H522,> 100 µM (inactive)
same,GI50,OVCAR-3,> 100 µM (inactive)
same,GI50,OVCAR-4,> 100 µM (inactive)
same,GI50,OVCAR-5,> 100 µM (inactive)
same,GI50,OVCAR-8,> 100 µM (inactive)
same,GI50,RPMI-8226,> 100 µM (inactive)
same,GI50,RXF 393,> 100 µM (inactive)
same,GI50,SF-268,> 100 µM (inactive)
same,GI50,SF-295,> 100 µM (inactive)
same,GI50,SF-539,> 100 µM (inactive)
same,GI50,SK-MEL-28,> 100 µM (inactive)
same,GI50,SK-MEL-2,> 100 µM (inactive)
same,GI50,SK-MEL-5,> 100 µM (inactive)
same,GI50,SK-OV-3,> 100 µM (inactive)
same,GI50,SN12C,> 100 µM (inactive)
same,GI50,SNB-19,> 100 µM (inactive)
same,GI50,SNB-75,> 79.8 µM (inactive)
same,GI50,SR,> 100 µM (inactive)
same,GI50,SW-620,> 100 µM (inactive)
same,GI50,TK-10,> 100 µM (inactive)
same,GI50,U-251,> 100 µM (inactive)
same,GI50,UACC-257,> 100 µM (inactive)
same,GI50,UACC-62,> 100 µM (inactive)
same,GI50,UO-31,> 100 µM (inactive)
same,GI50,XF498,> 100 µM (inactive)
